# Results published in patent US20150259344A1, “IMIDAZOLE DERIVATIVE” (DAINIPPON SUMITOMO PHARMA CO., LTD., priority 2012, published 2015).
# Biological target: T1, human α7 nAChR (Homo sapiens, UniProt P36544)
# T1 construct: expressed in transfected cells
# Experiment: Evaluation of PAM activity with human α7 nACh receptor stably expressing cells (aequorin luminescence, FDSS7000)
# Assay type: cell-based
# Settings: for activity at 10 µM: 10 μM test compound, read-out: α7PAM (%) @10 μM; for activity at 10 µM / activity at 1 µM: ACh at EC20, ratio of RLU (Max-Min) to control wells; for activity at 1 µM: 1 μM test compound (values marked *, footnote of Table 25), read-out: α7PAM (%) @1 μM
# Procedure, shortened: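 Human α7 nAChR stable cells loaded with 4 μM Viviren (final) for 4 h at room temperature in the dark. Compounds in Hanks/20 mM HEPES/0.2% BSA were added and luminescence recorded on FDSS7000. PAM activity = RLU (Max-Min) ratio of test wells to control wells.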
# T1 sequence (P36544 23-502): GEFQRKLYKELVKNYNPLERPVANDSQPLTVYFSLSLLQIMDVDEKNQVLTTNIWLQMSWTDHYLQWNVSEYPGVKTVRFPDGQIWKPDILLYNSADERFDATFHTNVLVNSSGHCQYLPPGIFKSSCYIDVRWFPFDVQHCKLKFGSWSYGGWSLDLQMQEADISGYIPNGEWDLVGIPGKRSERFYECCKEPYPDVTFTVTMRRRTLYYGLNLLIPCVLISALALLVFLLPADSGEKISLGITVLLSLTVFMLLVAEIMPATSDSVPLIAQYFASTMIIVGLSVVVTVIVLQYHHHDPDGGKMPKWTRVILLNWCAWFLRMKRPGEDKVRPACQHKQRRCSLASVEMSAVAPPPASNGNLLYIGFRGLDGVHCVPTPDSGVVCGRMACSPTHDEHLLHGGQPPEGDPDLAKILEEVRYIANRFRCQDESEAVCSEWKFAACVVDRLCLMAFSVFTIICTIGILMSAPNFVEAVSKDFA
SMILES,activity at 10 µM [%],further results
O=C(NC1CCC(F)(F)CC1)N1[C@@H]2CC[C@H]1C[C@@H](n1cnc(-c3cccc(F)c3F)c1)C2 [Example 386],880,
O=C(NC1CCCCC1)N1[C@@H]2CC[C@H]1C[C@@H](n1cnc(-c3cccc(F)c3F)c1)C2 [Example 387],,activity at 1 µM: 315%
O=C(NC1CCC(F)(F)CC1)N1[C@@H]2CC[C@H]1C[C@@H](n1cnc(-c3cc(F)ccc3F)c1)C2 [Example 388],,activity at 1 µM: 335%
O=C(NC1CCCCC1)N1[C@@H]2CC[C@H]1C[C@@H](n1cnc(-c3cc(F)ccc3F)c1)C2 [Example 389],,activity at 1 µM: 163%
O=C(NC1CCCCC1)N1[C@@H]2CC[C@H]1C[C@@H](n1cnc(-c3ccc(F)cc3)c1Cl)C2 [Example 390],683,
O=C(NC1CCC(F)(F)CC1)N1[C@@H]2CC[C@H]1C[C@@H](n1cnc(-c3ccc(F)cc3F)c1Cl)C2 [Example 394],455,
O=C(NC1CCOCC1)N1[C@@H]2CC[C@H]1C[C@@H](n1cnc(-c3ccc(F)cc3F)c1Cl)C2 [Example 395],869,
O=C(NC1CCC(F)(F)CC1)N1[C@@H]2CC[C@H]1C[C@@H](n1cnc(-c3cc(F)ccc3F)c1Cl)C2 [Example 396],585,
O=C(NC1CCOCC1)N1[C@@H]2CC[C@H]1C[C@@H](n1cnc(-c3cc(F)ccc3F)c1Cl)C2 [Example 397],522,
O=C(NC1CCC(F)(F)CC1)N1[C@@H]2CC[C@H]1C[C@@H](n1cnc(-c3cccc(F)c3F)c1Cl)C2 [Example 398],607,
O=C(NC1CCOCC1)N1[C@@H]2CC[C@H]1C[C@@H](n1cnc(-c3cccc(F)c3F)c1Cl)C2 [Example 399],891,
N#Cc1c(-c2ccc(F)cc2F)ncn1[C@H]1C[C@H]2CC[C@@H](C1)N2C(=O)NC1CCC(F)(F)CC1 [Example 402],498,
N#Cc1c(-c2cc(F)ccc2F)ncn1[C@H]1C[C@H]2CC[C@@H](C1)N2C(=O)NC1CCC(F)(F)CC1 [Example 403],,activity at 1 µM: 590%
N#Cc1c(-c2cccc(F)c2F)ncn1[C@H]1C[C@H]2CC[C@@H](C1)N2C(=O)NC1CCC(F)(F)CC1 [Example 404],292,
O=C(NC1CCCCC1)N1[C@@H]2CC[C@H]1C[C@H](n1cnc(-c3ccc(F)cc3)c1)C2 [Example 405],402,
O=C(NC1CCCCC1)N1[C@@H]2CC[C@H]1C[C@H](n1cnc(-c3ccccc3)c1)C2 [Example 406],629,
O=C(NC1CCC(F)(F)CC1)N1[C@@H]2CC[C@H]1C[C@H](n1cnc(-c3ccc(F)cc3F)c1)C2 [Example 407],904,
O=C(NC1CCCCC1)N1[C@@H]2CC[C@H]1C[C@H](n1cnc(-c3ccc(F)cc3F)c1)C2 [Example 408],140,
O=C(NC1CCC(F)(F)CC1)N1[C@@H]2CC[C@H]1C[C@H](n1cnc(-c3cccc(F)c3F)c1)C2 [Example 409],576,
O=C(NC1CCCCC1)N1[C@@H]2CC[C@H]1C[C@H](n1cnc(-c3cccc(F)c3F)c1)C2 [Example 410],197,

SMILES,activity at 10 µM [%],further results
O=C(NC1CCCCC1)N1[C@@H]2CC[C@H]1C[C@H](n1cnc(-c3cc(F)ccc3F)c1)C2 [Example 411],229,
O=C(NC1CCC(F)(F)CC1)N1[C@@H]2CC[C@H]1C[C@H](n1cnc(-c3cc(F)ccc3F)c1)C2 [Example 412],423,
O=C(NC1CCC(F)(F)CC1)N1[C@@H]2CC[C@H]1C[C@H](n1cnc(-c3ccc(F)cc3F)c1Cl)C2 [Example 415],997,
O=C(NC1CCOCC1)N1[C@@H]2CC[C@H]1C[C@H](n1cnc(-c3ccc(F)cc3F)c1Cl)C2 [Example 416],,PAM activity for α7 nAChR (in words) (comparison across Tables 18 to 25): stronger PAM activity than others
O=C(NC1CCC(F)(F)CC1)N1[C@@H]2CC[C@H]1C[C@H](n1cnc(-c3cc(F)ccc3F)c1Cl)C2 [Example 419],913,
N#Cc1c(-c2ccc(F)cc2)ncn1[C@@H]1C[C@H]2CC[C@@H](C1)N2C(=O)NC1CCCCC1 [Example 421],426,
N#Cc1c(-c2ccc(F)cc2F)ncn1[C@@H]1C[C@H]2CC[C@@H](C1)N2C(=O)NC1CCC(F)(F)CC1 [Example 422],131,
N#Cc1c(-c2cc(F)ccc2F)ncn1[C@@H]1C[C@H]2CC[C@@H](C1)N2C(=O)NC1CCC(F)(F)CC1 [Example 423],,activity at 1 µM: 390%
N#Cc1c(-c2cccc(F)c2F)ncn1[C@@H]1C[C@H]2CC[C@@H](C1)N2C(=O)NC1CCC(F)(F)CC1 [Example 424],210,
O=C(C1CCC(F)(F)CC1)N1[C@@H]2CC[C@H]1C[C@@H](n1cnc(-c3ccc(F)cc3)c1)C2 [Example 425],155,
O=C(C1CCC(F)(F)CC1)N1[C@@H]2CC[C@H]1C[C@@H](n1cnc(-c3ccc(F)cc3F)c1)C2 [Example 426],308,
O=C(C1CCC(F)(F)CC1)N1[C@@H]2CC[C@H]1C[C@@H](n1cnc(-c3ccccc3F)c1)C2 [Example 427],305,
O=C(C1CCC(F)(F)CC1)N1[C@@H]2CC[C@H]1C[C@@H](n1cnc(-c3ccccc3)c1)C2 [Example 428],144,
O=C(C1CCC(F)(F)CC1)N1[C@@H]2CC[C@H]1C[C@@H](n1cnc(-c3cccc(F)c3F)c1)C2 [Example 429],,activity at 1 µM: 111%
O=C(C1CCC(F)(F)CC1)N1[C@@H]2CC[C@H]1C[C@@H](n1cnc(-c3cc(F)ccc3F)c1)C2 [Example 430],,activity at 1 µM: 110%
O=C(C1CCC(F)(F)CC1)N1[C@@H]2CC[C@H]1C[C@@H](n1cnc(-c3ccc(F)cc3)c1Cl)C2 [Example 431],836,
O=C(C1CCC(F)(F)CC1)N1[C@@H]2CC[C@H]1C[C@@H](n1cnc(-c3ccccc3F)c1Cl)C2 [Example 434],512,
O=C(C1CCOCC1)N1[C@@H]2CC[C@H]1C[C@@H](n1cnc(-c3ccc(F)cc3F)c1Cl)C2 [Example 436],300,
O=C(C1CCC(F)(F)CC1)N1[C@@H]2CC[C@H]1C[C@@H](n1cnc(-c3cc(F)ccc3F)c1Cl)C2 [Example 437],533,
O=C(C1CCOCC1)N1[C@@H]2CC[C@H]1C[C@@H](n1cnc(-c3cc(F)ccc3F)c1Cl)C2 [Example 438],235,

SMILES,activity at 10 µM [%],further results
O=C(C1CCC(F)(F)CC1)N1[C@@H]2CC[C@H]1C[C@@H](n1cnc(-c3cccc(F)c3F)c1Cl)C2 [Example 439],813,
O=C(C1CCOCC1)N1[C@@H]2CC[C@H]1C[C@@H](n1cnc(-c3cccc(F)c3F)c1Cl)C2 [Example 440],508,
N#Cc1c(-c2ccc(F)cc2F)ncn1[C@H]1C[C@H]2CC[C@@H](C1)N2C(=O)C1CCC(F)(F)CC1 [Example 443],,activity at 1 µM: 368%
N#Cc1c(-c2cc(F)ccc2F)ncn1[C@H]1C[C@H]2CC[C@@H](C1)N2C(=O)C1CCC(F)(F)CC1 [Example 444],208,
N#Cc1c(-c2cccc(F)c2F)ncn1[C@H]1C[C@H]2CC[C@@H](C1)N2C(=O)C1CCC(F)(F)CC1 [Example 445],272,
O=C(C1CCC(F)(F)CC1)N1[C@@H]2CC[C@H]1C[C@H](n1cnc(-c3ccc(F)cc3)c1)C2 [Example 446],143,
O=C(C1CCC(F)(F)CC1)N1[C@@H]2CC[C@H]1C[C@H](n1cnc(-c3ccc(F)cc3F)c1)C2 [Example 447],268,
O=C(C1CCC(F)(F)CC1)N1[C@@H]2CC[C@H]1C[C@H](n1cnc(-c3ccccc3F)c1)C2 [Example 448],276,
O=C(C1CCC(F)(F)CC1)N1[C@@H]2CC[C@H]1C[C@H](n1cnc(-c3ccccc3)c1)C2 [Example 449],183,
O=C(C1CCC(F)(F)CC1)N1[C@@H]2CC[C@H]1C[C@H](n1cnc(-c3cccc(F)c3F)c1)C2 [Example 450],128,
O=C(C1CCC(F)(F)CC1)N1[C@@H]2CC[C@H]1C[C@H](n1cnc(-c3cc(F)ccc3F)c1)C2 [Example 451],,activity at 1 µM: 143%
O=C(C1CCC(F)(F)CC1)N1[C@@H]2CC[C@H]1C[C@H](n1cnc(-c3cccc(F)c3F)c1Cl)C2 [Example 457],865,
O=C(C1CCOCC1)N1[C@@H]2CC[C@H]1C[C@H](n1cnc(-c3cccc(F)c3F)c1Cl)C2 [Example 458],434,
O=C(C1CCC(F)(F)CC1)N1[C@@H]2CC[C@H]1C[C@H](n1cnc(-c3cc(F)ccc3F)c1Cl)C2 [Example 459],730,
O=C(C1CCOCC1)N1[C@@H]2CC[C@H]1C[C@H](n1cnc(-c3cc(F)ccc3F)c1Cl)C2 [Example 460],390,
N#Cc1c(-c2ccc(F)cc2)ncn1[C@@H]1C[C@H]2CC[C@@H](C1)N2C(=O)C1CCC(F)(F)CC1 [Example 461],162,
N#Cc1c(-c2ccc(F)cc2F)ncn1[C@@H]1C[C@H]2CC[C@@H](C1)N2C(=O)C1CCC(F)(F)CC1 [Example 462],384,
N#Cc1c(-c2cccc(F)c2F)ncn1[C@@H]1C[C@H]2CC[C@@H](C1)N2C(=O)C1CCC(F)(F)CC1 [Example 463],,activity at 1 µM: 181%
N#Cc1c(-c2cc(F)ccc2F)ncn1[C@@H]1C[C@H]2CC[C@@H](C1)N2C(=O)C1CCC(F)(F)CC1 [Example 464],,activity at 1 µM: 124%
